# Measured values taken from US12544395B2, “Combination compositions comprising a beta-lactamase inhibitor and uses thereof” (priority 2018, dated 2026).
# What was measured:
# Format in all cases: cell-based
# K. pneumoniae KPN 508 = assay: Broth microdilution MIC (strain enzymes: SHV-7, TEM-1)
# K. pneumoniae KP 3 = assay: Broth microdilution MIC (strain enzymes: SHV-1, TEM-1)
# E. coli ESBL 4 = assay: Broth microdilution MIC (strain enzymes: CTX-M15, TEM-1)
# K. pneumoniae ESBL 8 #1 = assay: Broth microdilution MIC (strain enzymes: TEM-1, SHV-12)
# K. pneumoniae 153239 = assay: Broth microdilution MIC (strain enzymes: SHV-11, TEM-1)
# K. pneumoniae 11/23 LF#2 = assay: microbe, parasite or virus in culture; conditions: with inhibitor at 1 μg/mL
smiles,measurement,setting,value
"CCC(=O)N[C@H]1Cc2cccc(C(=O)O)c2OB1O [Compound 2, (R)-2-hydroxy-3-propionamido-3,4-dihydro-2H-benzo[e][1,2]oxaborinine-8-carboxylic acid]",MIC of cefalexin (LEX),K. pneumoniae KPN 508; with inhibitor at 1 μg/mL,0.5 µg/mL
same,MIC of cefdinir (CDR),K. pneumoniae KPN 508; with inhibitor at 1 μg/mL,0.5 µg/mL
same,MIC of cefixime (CFM),K. pneumoniae KPN 508; with inhibitor at 1 μg/mL,4 µg/mL
same,MIC of ceftibuten (CTB),K. pneumoniae KPN 508; with inhibitor at 1 μg/mL,0.125 µg/mL
same,MIC of cefalexin (LEX),K. pneumoniae KPN 508; with inhibitor at 2 μg/mL,0.25 µg/mL
same,MIC of cefdinir (CDR),K. pneumoniae KPN 508; with inhibitor at 2 μg/mL,0.25 µg/mL
same,MIC of cefixime (CFM),K. pneumoniae KPN 508; with inhibitor at 2 μg/mL,1 µg/mL
same,MIC of ceftibuten (CTB),K. pneumoniae KPN 508; with inhibitor at 2 μg/mL,0.125 µg/mL
same,MIC of cefalexin (LEX),K. pneumoniae KPN 508; with inhibitor at 4 μg/mL,0.5 µg/mL
same,MIC of cefdinir (CDR),K. pneumoniae KPN 508; with inhibitor at 4 μg/mL,0.5 µg/mL
same,MIC of cefixime (CFM),K. pneumoniae KPN 508; with inhibitor at 4 μg/mL,0.5 µg/mL
same,MIC of ceftibuten (CTB),K. pneumoniae KPN 508; with inhibitor at 4 μg/mL,0.06 µg/mL
same,MIC of cefalexin (LEX),K. pneumoniae KP 3; with inhibitor at 1 μg/mL,0.5 µg/mL
same,MIC of cefdinir (CDR),K. pneumoniae KP 3; with inhibitor at 1 μg/mL,0.5 µg/mL
same,MIC of cefixime (CFM),K. pneumoniae KP 3; with inhibitor at 1 μg/mL,4 µg/mL
same,MIC of ceftibuten (CTB),K. pneumoniae KP 3; with inhibitor at 1 μg/mL,0.25 µg/mL
same,MIC of cefalexin (LEX),K. pneumoniae KP 3; with inhibitor at 2 μg/mL,0.25 µg/mL
same,MIC of cefdinir (CDR),K. pneumoniae KP 3; with inhibitor at 2 μg/mL,0.25 µg/mL
same,MIC of cefixime (CFM),K. pneumoniae KP 3; with inhibitor at 2 μg/mL,4 µg/mL
same,MIC of ceftibuten (CTB),K. pneumoniae KP 3; with inhibitor at 2 μg/mL,0.25 µg/mL
same,MIC of cefalexin (LEX),K. pneumoniae KP 3; with inhibitor at 4 μg/mL,0.5 µg/mL
same,MIC of cefdinir (CDR),K. pneumoniae KP 3; with inhibitor at 4 μg/mL,0.5 µg/mL
same,MIC of cefixime (CFM),K. pneumoniae KP 3; with inhibitor at 4 μg/mL,2 µg/mL
same,MIC of ceftibuten (CTB),K. pneumoniae KP 3; with inhibitor at 4 μg/mL,0.125 µg/mL
same,MIC of cefalexin (LEX),E. coli ESBL 4; with inhibitor at 1 μg/mL,2 µg/mL
same,MIC of cefdinir (CDR),E. coli ESBL 4; with inhibitor at 1 μg/mL,2 µg/mL
same,MIC of cefixime (CFM),E. coli ESBL 4; with inhibitor at 1 μg/mL,0.5 µg/mL
same,MIC of ceftibuten (CTB),E. coli ESBL 4; with inhibitor at 1 μg/mL,0.25 µg/mL
same,MIC of cefalexin (LEX),E. coli ESBL 4; with inhibitor at 2 μg/mL,1 µg/mL
same,MIC of cefdinir (CDR),E. coli ESBL 4; with inhibitor at 2 μg/mL,1 µg/mL
same,MIC of cefixime (CFM),E. coli ESBL 4; with inhibitor at 2 μg/mL,0.25 µg/mL
same,MIC of ceftibuten (CTB),E. coli ESBL 4; with inhibitor at 2 μg/mL,0.125 µg/mL
same,MIC of cefalexin (LEX),E. coli ESBL 4; with inhibitor at 4 μg/mL,0.5 µg/mL
same,MIC of cefdinir (CDR),E. coli ESBL 4; with inhibitor at 4 μg/mL,0.5 µg/mL
same,MIC of cefixime (CFM),E. coli ESBL 4; with inhibitor at 4 μg/mL,0.25 µg/mL
same,MIC of ceftibuten (CTB),E. coli ESBL 4; with inhibitor at 4 μg/mL,0.25 µg/mL
same,MIC of cefalexin (LEX),K. pneumoniae ESBL 8 #1; with inhibitor at 1 μg/mL,0.25 µg/mL
same,MIC of cefdinir (CDR),K. pneumoniae ESBL 8 #1; with inhibitor at 1 μg/mL,0.25 µg/mL
same,MIC of cefixime (CFM),K. pneumoniae ESBL 8 #1; with inhibitor at 1 μg/mL,2 µg/mL
same,MIC of ceftibuten (CTB),K. pneumoniae ESBL 8 #1; with inhibitor at 1 μg/mL,0.25 µg/mL
same,MIC of cefalexin (LEX),K. pneumoniae ESBL 8 #1; with inhibitor at 2 μg/mL,0.125 µg/mL
same,MIC of cefdinir (CDR),K. pneumoniae ESBL 8 #1; with inhibitor at 2 μg/mL,0.125 µg/mL
same,MIC of cefixime (CFM),K. pneumoniae ESBL 8 #1; with inhibitor at 2 μg/mL,0.5 µg/mL
same,MIC of ceftibuten (CTB),K. pneumoniae ESBL 8 #1; with inhibitor at 2 μg/mL,0.125 µg/mL
same,MIC of cefalexin (LEX),K. pneumoniae ESBL 8 #1; with inhibitor at 4 μg/mL,0.25 µg/mL
same,MIC of cefdinir (CDR),K. pneumoniae ESBL 8 #1; with inhibitor at 4 μg/mL,0.25 µg/mL
same,MIC of cefixime (CFM),K. pneumoniae ESBL 8 #1; with inhibitor at 4 μg/mL,0.25 µg/mL
same,MIC of ceftibuten (CTB),K. pneumoniae ESBL 8 #1; with inhibitor at 4 μg/mL,0.06 µg/mL
same,MIC of cefalexin (LEX),K. pneumoniae 153239; with inhibitor at 1 μg/mL,0.5 µg/mL
same,MIC of cefdinir (CDR),K. pneumoniae 153239; with inhibitor at 1 μg/mL,0.5 µg/mL
same,MIC of cefixime (CFM),K. pneumoniae 153239; with inhibitor at 1 μg/mL,0.125 µg/mL
same,MIC of ceftibuten (CTB),K. pneumoniae 153239; with inhibitor at 1 μg/mL,0.06 µg/mL
same,MIC of cefalexin (LEX),K. pneumoniae 153239; with inhibitor at 2 μg/mL,0.25 µg/mL
same,MIC of cefdinir (CDR),K. pneumoniae 153239; with inhibitor at 2 μg/mL,0.25 µg/mL
same,MIC of cefixime (CFM),K. pneumoniae 153239; with inhibitor at 2 μg/mL,0.5 µg/mL
same,MIC of ceftibuten (CTB),K. pneumoniae 153239; with inhibitor at 2 μg/mL,0.125 µg/mL
same,MIC of cefalexin (LEX),K. pneumoniae 153239; with inhibitor at 4 μg/mL,0.25 µg/mL
same,MIC of cefdinir (CDR),K. pneumoniae 153239; with inhibitor at 4 μg/mL,0.25 µg/mL
same,MIC of cefixime (CFM),K. pneumoniae 153239; with inhibitor at 4 μg/mL,0.25 µg/mL
same,MIC of ceftibuten (CTB),K. pneumoniae 153239; with inhibitor at 4 μg/mL,0.06 µg/mL
same,MIC of cefalexin (LEX),K. pneumoniae 11/23 LF#2,0.25 µg/mL
same,MIC of cefdinir (CDR),K. pneumoniae 11/23 LF#2,0.25 µg/mL
same,MIC of cefixime (CFM),K. pneumoniae 11/23 LF#2,4 µg/mL
